ChEMBL document CHEMBL1909046, “DrugMatrix in vitro pharmacology data”

How the values were obtained:
[1] = biological target: T1, Cholecystokinin receptor type A (Homo sapiens, UniProt P32238); type: cell membranes, Membrane; settings: 1321-n1; further: in other assays of this panel Not Active means under 50% inhibition at 10 µM
T1 sequence (P32238 whole entry): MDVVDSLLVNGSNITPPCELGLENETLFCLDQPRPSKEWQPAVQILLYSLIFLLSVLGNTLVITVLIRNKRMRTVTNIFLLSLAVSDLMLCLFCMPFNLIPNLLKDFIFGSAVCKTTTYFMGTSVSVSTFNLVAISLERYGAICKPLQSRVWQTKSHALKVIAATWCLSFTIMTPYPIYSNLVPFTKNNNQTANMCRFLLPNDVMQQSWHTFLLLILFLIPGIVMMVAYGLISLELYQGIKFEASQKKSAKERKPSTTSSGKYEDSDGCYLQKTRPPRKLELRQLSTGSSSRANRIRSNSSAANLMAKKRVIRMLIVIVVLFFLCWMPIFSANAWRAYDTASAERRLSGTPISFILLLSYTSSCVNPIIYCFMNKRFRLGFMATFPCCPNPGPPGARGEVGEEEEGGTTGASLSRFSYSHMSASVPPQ

[2] = DRUGMATRIX: Phosphodiesterase PDE4 enzyme inhibition (substrate: [3H]cAMP + cAMP); settings: u-937; Not Active = under 50% inhibition at 10 µM
Caspase-1 = biological target: T2, Caspase-1 (Homo sapiens, UniProt P29466); set-up: species or system Escherichia coli;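 further: Caspase-1 enzyme inhibition assay with a peptide substrate; in other assays of this panel Not Active means under 50% inhibition at 10 µM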
T2 sequence (P29466 whole entry): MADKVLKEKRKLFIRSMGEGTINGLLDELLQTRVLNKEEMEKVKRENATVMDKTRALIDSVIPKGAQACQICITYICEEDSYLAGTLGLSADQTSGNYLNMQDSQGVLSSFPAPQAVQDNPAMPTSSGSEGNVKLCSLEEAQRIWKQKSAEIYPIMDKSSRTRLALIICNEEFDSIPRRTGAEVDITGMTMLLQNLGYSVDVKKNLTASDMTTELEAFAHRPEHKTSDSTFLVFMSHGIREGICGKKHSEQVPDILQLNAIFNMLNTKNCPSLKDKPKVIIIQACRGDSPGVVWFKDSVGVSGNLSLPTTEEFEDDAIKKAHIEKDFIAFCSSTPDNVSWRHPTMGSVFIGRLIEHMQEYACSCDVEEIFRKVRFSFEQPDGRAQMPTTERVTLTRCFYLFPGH

Melanocortin receptor 3 = Melanocortin receptor 3 (Homo sapiens, UniProt P41968); type: cell membranes, Membrane; settings: hek293; further: in other assays of this panel Not Active means under 50% inhibition at 10 µM
Adenosine receptor A1 = biological target: T3, Adenosine receptor A1 (Homo sapiens, UniProt P30542); type: cell membranes, CHO, Membrane; settings: cho;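 further: radioligand binding assay at the adenosine A1 receptor, with DPCPX serving as the labelled ligand; in other assays of this panel Not Active means under 50% inhibition at 10 µM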
T3 sequence (P30542 whole entry): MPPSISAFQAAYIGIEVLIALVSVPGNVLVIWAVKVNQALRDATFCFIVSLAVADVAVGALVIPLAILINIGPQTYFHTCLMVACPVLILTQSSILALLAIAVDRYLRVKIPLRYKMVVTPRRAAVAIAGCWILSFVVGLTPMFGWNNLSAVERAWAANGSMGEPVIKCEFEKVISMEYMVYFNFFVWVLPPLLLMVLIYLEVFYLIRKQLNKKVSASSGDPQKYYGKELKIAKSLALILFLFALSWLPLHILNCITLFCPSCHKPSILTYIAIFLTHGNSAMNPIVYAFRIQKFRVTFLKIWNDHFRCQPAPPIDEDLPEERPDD

Vasopressin V1a receptor = Vasopressin V1a receptor (Homo sapiens, UniProt P37288); type: cell membranes, Membrane; settings: hek293; further: in other assays of this panel Not Active means under 50% inhibition at 10 µM
[3] = DRUGMATRIX: beta-Lactamase enzyme inhibition (substrate: Nitrocefin); set-up: species or system Bacillus cereus; settings: Not Active = under 50% inhibition at 10 µM

Melanocortin receptor 3, sequence (P41968 whole entry): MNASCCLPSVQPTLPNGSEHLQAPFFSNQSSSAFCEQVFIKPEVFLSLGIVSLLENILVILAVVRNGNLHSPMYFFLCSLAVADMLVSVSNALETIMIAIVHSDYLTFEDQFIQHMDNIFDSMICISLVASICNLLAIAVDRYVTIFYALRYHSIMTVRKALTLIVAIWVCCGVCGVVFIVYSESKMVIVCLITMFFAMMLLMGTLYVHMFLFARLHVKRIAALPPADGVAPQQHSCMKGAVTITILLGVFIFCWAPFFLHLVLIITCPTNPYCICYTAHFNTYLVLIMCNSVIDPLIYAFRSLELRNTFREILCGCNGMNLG
Vasopressin V1a receptor, sequence (P37288 whole entry): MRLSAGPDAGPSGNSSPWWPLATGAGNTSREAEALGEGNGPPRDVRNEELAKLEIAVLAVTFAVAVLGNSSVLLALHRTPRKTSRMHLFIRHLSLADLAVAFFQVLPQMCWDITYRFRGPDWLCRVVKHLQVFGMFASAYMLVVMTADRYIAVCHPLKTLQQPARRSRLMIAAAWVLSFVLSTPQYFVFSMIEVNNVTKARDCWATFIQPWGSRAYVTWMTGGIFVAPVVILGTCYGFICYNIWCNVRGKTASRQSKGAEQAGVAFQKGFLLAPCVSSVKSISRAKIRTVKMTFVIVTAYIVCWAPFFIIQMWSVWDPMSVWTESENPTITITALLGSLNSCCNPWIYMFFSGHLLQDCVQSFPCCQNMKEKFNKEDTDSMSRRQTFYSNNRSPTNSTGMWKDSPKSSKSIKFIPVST

[N-]=[N+]=CC(=O)OC[C@H](N)C(=O)O [AZASERINE]
Not Active: IC50 [1] | IC50 [2] | Ki [2] | IC50 (Caspase-1) | IC50 (Melanocortin receptor 3) | IC50 (Adenosine receptor A1) | IC50 (Vasopressin V1a receptor) | IC50 [3] | Ki [3]

CC[C@H]1OC(=O)[C@H](C)[C@@H](O[C@H]2C[C@@](C)(OC)[C@@H](O)[C@H](C)O2)[C@H](C)[C@@H](O[C@@H]2O[C@H](C)C[C@H](N(C)C)[C@H]2O)[C@](C)(O)C[C@@H](C)CN(C)[C@H](C)[C@@H](O)[C@]1(C)O [AZITHROMYCIN]
Not Active: IC50 [1] | IC50 [2] | Ki [2] | IC50 (Caspase-1) | IC50 (Melanocortin receptor 3) | IC50 (Adenosine receptor A1) | IC50 (Vasopressin V1a receptor) | IC50 [3] | Ki [3]

O=c1cc(-c2ccccc2)oc2ccc3ccccc3c12 [BETA-NAPHTHOFLAVONE]
Not Active: IC50 [1] | IC50 [2] | Ki [2] | IC50 (Caspase-1) | IC50 (Melanocortin receptor 3) | IC50 (Adenosine receptor A1) | IC50 (Vasopressin V1a receptor) | IC50 [3] | Ki [3]

CS(=O)(=O)OCCCCOS(C)(=O)=O [BUSULFAN]
Not Active: IC50 [1] | IC50 [2] | Ki [2] | IC50 (Caspase-1) | IC50 (Melanocortin receptor 3) | IC50 (Adenosine receptor A1) | IC50 (Vasopressin V1a receptor) | IC50 [3] | Ki [3]

NC(=O)N1c2ccccc2C=Cc2ccccc21 [CARBAMAZEPINE]
Not Active: IC50 [1] | IC50 [2] | Ki [2] | IC50 (Caspase-1) | IC50 (Melanocortin receptor 3) | IC50 (Adenosine receptor A1) | IC50 (Vasopressin V1a receptor) | IC50 [3] | Ki [3]

CCC[C@@H]1C[C@@H](C(=O)N[C@@H]([C@H]2O[C@H](SC)[C@H](O)[C@@H](O)[C@H]2O)[C@H](C)Cl)N(C)C1 [CLINDAMYCIN]
Not Active: IC50 [1] | IC50 [2] | Ki [2] | IC50 (Caspase-1) | IC50 (Melanocortin receptor 3) | IC50 (Adenosine receptor A1) | IC50 (Vasopressin V1a receptor) | IC50 [3] | Ki [3]

O=C(O)c1cc(=O)c2c(OCC(O)COc3cccc4oc(C(=O)O)cc(=O)c34)cccc2o1 [CROMOLYN]
Not Active: IC50 [1] | IC50 [2] | Ki [2] | IC50 (Caspase-1) | IC50 (Melanocortin receptor 3) | IC50 (Adenosine receptor A1) | IC50 (Vasopressin V1a receptor) | IC50 [3] | Ki [3]

CC(=O)O[C@]1(C(C)=O)CC[C@H]2[C@@H]3C=C(Cl)C4=CC(=O)[C@@H]5C[C@@H]5[C@]4(C)[C@H]3CC[C@@]21C [CYPROTERONE ACETATE]
Not Active: IC50 [1] | IC50 [2] | Ki [2] | IC50 (Caspase-1) | IC50 (Melanocortin receptor 3) | IC50 (Adenosine receptor A1) | IC50 (Vasopressin V1a receptor) | IC50 [3] | Ki [3]

C#C[C@]1(O)CC[C@H]2[C@@H]3CCC4=Cc5oncc5C[C@]4(C)[C@H]3CC[C@@]21C [DANAZOL]
Not Active: IC50 [1] | IC50 [2] | Ki [2] | IC50 (Caspase-1) | IC50 (Melanocortin receptor 3) | IC50 (Adenosine receptor A1) | IC50 (Vasopressin V1a receptor) | IC50 [3] | Ki [3]

C[C@H](C(=O)O)c1cccc(C(=O)c2ccccc2)c1 [DEXKETOPROFEN]
Not Active: IC50 [1] | IC50 [2] | Ki [2] | IC50 (Caspase-1) | IC50 (Melanocortin receptor 3) | IC50 (Adenosine receptor A1) | IC50 (Vasopressin V1a receptor) | IC50 [3] | Ki [3]

CCn1cc(C(=O)O)c(=O)c2cc(F)c(N3CCNCC3)nc21 [ENOXACIN]
Not Active: IC50 [1] | IC50 [2] | Ki [2] | IC50 (Caspase-1) | IC50 (Melanocortin receptor 3) | IC50 (Adenosine receptor A1) | IC50 (Vasopressin V1a receptor) | IC50 [3] | Ki [3]

C#C[C@]1(O)CC[C@H]2[C@@H]3CCc4cc(O)ccc4[C@H]3CC[C@@]21C [ETHINYL ESTRADIOL]
Not Active: IC50 [1] | IC50 [2] | Ki [2] | IC50 (Caspase-1) | IC50 (Melanocortin receptor 3) | IC50 (Adenosine receptor A1) | IC50 (Vasopressin V1a receptor) | IC50 [3] | Ki [3]

OCCO [ETHYLENE GLYCOL]
Not Active: IC50 [1] | IC50 [2] | Ki [2] | IC50 (Caspase-1) | IC50 (Melanocortin receptor 3) | IC50 (Adenosine receptor A1) | IC50 (Vasopressin V1a receptor) | IC50 [3] | Ki [3]

NC[C@@H]1O[C@H](O[C@H]2[C@@H](O)[C@H](O[C@@H]3[C@@H](O)[C@H](N)C[C@H](N)[C@H]3O[C@H]3O[C@H](CN)[C@@H](O)[C@H](O)[C@H]3N)O[C@@H]2CO)[C@H](N)[C@@H](O)[C@@H]1O [FRAMYCETIN]
Not Active: IC50 [1] | IC50 [2] | Ki [2] | IC50 (Caspase-1) | IC50 (Melanocortin receptor 3) | IC50 (Adenosine receptor A1) | IC50 (Vasopressin V1a receptor) | IC50 [3] | Ki [3]

COc1ccccc1OCC(O)CO (stereo not drawn) [GUAIFENESIN]
Not Active: IC50 [1] | IC50 [2] | Ki [2] | IC50 (Caspase-1) | IC50 (Melanocortin receptor 3) | IC50 (Adenosine receptor A1) | IC50 (Vasopressin V1a receptor) | IC50 [3] | Ki [3]

N=C(N)N/N=C/c1c(Cl)cccc1Cl [GUANABENZ]
Not Active: IC50 [1] | IC50 [2] | Ki [2] | IC50 (Caspase-1) | IC50 (Melanocortin receptor 3) | IC50 (Adenosine receptor A1) | IC50 (Vasopressin V1a receptor) | IC50 [3] | Ki [3]

C[C@]12CCC(=O)C=C1CC[C@@H]1[C@@H]2[C@@H](O)C[C@@]2(C)[C@H]1CC[C@]2(O)C(=O)CO [HYDROCORTISONE]
Not Active: IC50 [1] | IC50 [2] | Ki [2] | IC50 (Caspase-1) | IC50 (Melanocortin receptor 3) | IC50 (Adenosine receptor A1) | IC50 (Vasopressin V1a receptor) | IC50 [3] | Ki [3]
